Data: patent publication US11802107B2, “Compounds and methods of use” (Signum Biosciences, Inc., priority 2017, dated 2023)
In brackets after ≈: the same amount, converted by molar mass.

Columns and labels:
[1] = system: P. acnes (ATCC 6919); assay: Minimal inhibitory concentration (MIC) against P. acnes; type: cell-based, Propionibacterium acnes; conditions: Cutibacterium acnes, ATCC6919, 72 h, P. acnes ATCC 6919, 10^6 CFU/mL, read-out: MIC
Procedure: To determine minimal inhibitory concentration (MIC), reagents were dissolved in vehicle (5% v/v) and then added to bacteria suspension. P. acnes (ATCC® 6919TM) at 10^6 CFU/mL was incubated with test materials at the concentrations of two-fold serial dilution (0.25-500 μg/mL) and incubated for 72 hours (P. acnes).

[2] = system: TSLP; assay: S. aureus-induced TSLP on NHEKs; type: cell-based; conditions: Homo sapiens; NHEK, live S. aureus ATCC 33591 1:1, 24 hours, ELISA; read-out: S. aureus-NHEK TSLP Protein IC50
Procedure: Normal human epidermal keratinocytes (NHEKs) from neonatal donors were obtained from Thermo-Fisher (Cat No. C-001-5C). Cells were cultured in 96-well plates for 24 hours with EpiLife media (Cat No. MEPI500CA) supplemented with keratinocytes growth supplement (Cat No. 50015). On Day 2, media was removed and replaced with supplement-depleted medium for 24 hours. On Day 3, media was removed and cells were pre-treated with test materials (≤[…]) for 2 hours and later co-treated with test materials and live S. aureus (ATCC® 33591) at 1:1 NHEK:bacteria ratio for 24 hours at 37° C. and 5% CO2. After incubation, cell media supernatants were harvested and used to measure TSLP levels using ELISA kit (R&D Systems® #DY1398). Results were represented as percent of inhibition relative to untreated and S. aureus-only treated cells. IC50 values were determined by non-linear regression analysis using the four-parameter logistic equation.

[3] = system: IL-6; assay: Nickel (Ni2+)-induced IL-6 on HDMECs; type: cell-based; conditions: Homo sapiens; HDMEC, 1 mM NiSO4, 6 hours, ELISA; read-out: Nickel-HDMECs IL-6 Protein IC50
Procedure: Human Dermal Microvascular Endothelial cells (HDMECs) from human skin tissues were obtained from Sciencell, Inc. (Cat No. 2000). Cells were cultured in 96-well plates for 24 hours with ECM media (Cat No. 1001) supplemented with endothelial cell growth supplement (Cat No. 50015) and 5% v/v FBS. On Day 2, media was removed and replaced with supplement-depleted medium for 24 hours. On Day 3, media was removed and cells were pre-treated with test materials (≤10 μM) for 2 hours and later co-treated with test materials and 1 mM NiSO4 (Sigma-Aldrich, Cat No. 227676) for 6 hours at 37° C. and 5% CO2. After incubation, cell media supernatants were harvested and used to measure IL-6 levels using ELISA kit (BD Biosciences® #555220). Results were represented as percent of inhibition relative to untreated and NiSO4-only treated cells. IC50 values were determined by non-linear regression analysis using the four-parameter logistic equation.

[4] = system: IL-8; assay: P. acnes-induced IL-8 on human NHEKs; type: cell-based; conditions: for IC50: Homo sapiens, NHEK, live P. acnes 10^7 CFU, 24 hours, ELISA, read-out: P. acnes-NHEK IL-8 Protein IC50; for P. acnes-induced IL-8 production: cultured human keratinocytes exposed to P. acnes
Procedure: Normal human epidermal keratinocytes (NHEKs) from neonatal donors were obtained from Thermo-Fisher (Cat No. C-001-5C). Cells were cultured in 96-well plates for 24 hours with EpiLife media (Cat No. MEPI500CA) supplemented with keratinocytes growth supplement (Cat No. S0015). On Day 2, media was removed and replaced with supplement-depleted medium for 24 hours. On Day 3, media was removed and cells were pre-treated with test materials ([…]) for 2 hours and later co-treated with test materials and live P. acnes (ATCC® 6919TM) at 10^7 CFU for 24 hours at 37° C. and 5% CO2. After incubation, cell media supernatants were harvested and used to measure pro-inflammatory cytokine levels (IL-8) using ELISA kits (BD Biosciences® #555244). Results were represented as percent of inhibition relative to untreated and P. acnes-only treated cells. IC50 values were determined by non-linear regression analysis using the four-parameter logistic equation.

[5] = system: IFNγ; assay: PHA-induced IFNγ on PBMCs; type: cell-based; conditions: Homo sapiens, PBMC, PHA-L 20 μg/mL, 24 hours, ELISA
Procedure: Cryopreserved human Peripheral Blood Mononuclear cells (PBMCs) from healthy adult donors were obtained from Zen Bio, Inc (Cat No. SER-PBMC-F). Cells were cultured in 96-well plates with lymphocyte media (Cat No. LYMPH-1) and were pre-treated with test materials (≤100 μM) for 2 hours and later co-treated with test materials and PHA-L (Sigma Aldrich, Cat No. 11249738001) at 20 μg/mL and incubated for 24 hours at 37° C. and 5% CO2. After incubation, cell media supernatants were harvested and used to measure cytokine levels (IL-2, IFNγ) using ELISA kits (R&D Systems® #DY202, #DY285). Results were represented as percent of inhibition relative to untreated and PHA-only treated cells. IC50 values were determined by non-linear regression analysis using the four-parameter logistic equation.

[6] = system: IL-22; assay: Anti-CD3/CD28+IL-4-induced IL-22 on PBMCs; type: cell-based; conditions: Homo sapiens, PBMC, anti-CD3/CD28 beads + 50 ng/mL IL-4, 48 hours, ELISA, read-out: TCR/IL-4-PBMCs IL-22 IC50
Procedure: (§1) Cryopreserved human Peripheral Blood Mononuclear cells (PBMCs) from healthy adult donors were obtained from Zen Bio, Inc (Cat No. SER-PBMC-F). Cells were cultured in 96-well plates with lymphocyte media (Cat No. LYMPH-1) and were pre-treated with test materials (≤100 μM) for 2 hours and later co-treated with test materials and anti-CD3/CD28 beads (Thermo-Fisher; Cat No. 11131D) and 50 ng/mL recombinant human IL-4 (R&D Systems® #204-IL) for 48 hours at 37° C. and 5% CO2. After incubation, cell media supernatants were harvested and used to measure cytokine levels (IL-22, IL-31) using ELISA kits (R&D Systems® #DY782, #DY2824). Results were represented as percent of inhibition relative to untreated and anti-CD3/CD28+IL-4 only treated cells. IC50 values were determined by non-linear regression analysis using the four-parameter logistic equation.

[7] = system: IL-31; assay: Anti-CD3/CD28+IL-4-induced IL-31 on PBMCs; type: cell-based; conditions: Homo sapiens, PBMC, anti-CD3/CD28 beads + 50 ng/mL IL-4, 48 hours, ELISA, read-out: TCR/IL-4-PBMCs IL-31 IC50
Procedure: as §1

Row | SMILES | MIC [1] [mg/L] | IC50 [2] [nM] | IC50 [3] [nM] | IC50 [4] [nM] | IC50 [5] [nM] | IC50 [6] [nM] | P. acnes-induced IL-8 production [4] | IC50 [7] [nM]
1 | C/C(=C\CSC[C@H](NC(=O)N(C)CC(=O)O)C(=O)O)CCCC(C)CCCC(C)CCCC(C)C (stereo partly drawn) [Compound C, (2R)-2-{[(carboxymethyl)(methyl)carbamoyl]amino}-3-{[(2E)-3,7,11,15-tetramethylhexadec-2-en-1-yl]sulfanyl}propanoic acid] | 6 (≈ 11.7 µM) | 3000 | 20 | 40 | > 10000 | > 25000 |  | 
2 | C/C(=C\CSCC(NC(=O)NCC(=O)O)C(=O)O)CCCC(C)CCCC(C)CCCC(C)C (centres unmarked) [A] | 10 (≈ 20 µM) | 9000 | 30 | 120 |  |  |  | 
3 | C/C(=C\CSC[C@H](NC(=O)N1CCC[C@H]1C(=O)O)C(=O)O)CCCC(C)CCCC(C)CCCC(C)C (some centres unmarked) [Compound E] | 5 (≈ 9.25 µM) |  |  | 3 | 1400 | > 25000 | inhibit IL-8 production | 1
4 | C/C(=C\CSCC(NC(=O)N(CC(=O)O)CC(=O)O)C(=O)O)CCCC(C)CCCC(C)CCCC(C)C (centres unmarked) [Compound G] | 4 (≈ 7.16 µM) |  |  | 68 | > 10000 | > 25000 | inhibit IL-8 production | 
5 | N#Cc1ccc(Oc2ccc3c(c2)COB3O)cc1 [AN2728, reference compound] |  | 5000 | 100000 |  | 300 | 2000 |  | 0.008
6 | C/C(=C\CSC[C@H](NC(=O)COCC(=O)O)C(=O)O)CCCC(C)CCCC(C)CCCC(C)C (some centres unmarked) [Compound T] | 22 (≈ 42.7 µM) | 10000 | 10 |  | > 10000 | > 25000 |  | 1
